Active and inactive are the calls of the source. The rule behind the calls is not given here.
Experiments:
[1] = target: Dual specificity mitogen-activated protein kinase kinase 7 (Homo sapiens, UniProt O14733); assay: Inhibition of MKK7beta (unknown origin)
[2] = AUC (0 to t) in Sprague-Dawley rat at 3 mg/kg, iv measured up to 24 hrs by LC-MS/MS analysis; assay type: ADME, organism-based; set-up: route intravenous, dose 3 mg/kg, time <=24; settings: in vivo
[3] = Metabolic stability in human liver microsomes assessed as half life at 100 uM/L measured upto 90 mins by LC-MS/MS analysis; assay type: ADME, Microsome
[4] = Oral bioavailability in Sprague-Dawley rat at 3 mg/kg measured up to 24 hrs by LC-MS/MS analysis; assay type: ADME, organism-based; settings: in vivo
[5] = target: Ribosomal protein S6 kinase alpha-6 (Homo sapiens, UniProt Q9UK32); assay: Inhibition of RSK4 (unknown origin)
[6] = target: Calcium/calmodulin-dependent protein kinase kinase 2 (Homo sapiens, UniProt Q96RR4); assay: Inhibition of CAMKK2 (unknown origin)
Calcium/calmodulin-dependent protein kinase kinase 2, sequence (Q96RR4 whole entry): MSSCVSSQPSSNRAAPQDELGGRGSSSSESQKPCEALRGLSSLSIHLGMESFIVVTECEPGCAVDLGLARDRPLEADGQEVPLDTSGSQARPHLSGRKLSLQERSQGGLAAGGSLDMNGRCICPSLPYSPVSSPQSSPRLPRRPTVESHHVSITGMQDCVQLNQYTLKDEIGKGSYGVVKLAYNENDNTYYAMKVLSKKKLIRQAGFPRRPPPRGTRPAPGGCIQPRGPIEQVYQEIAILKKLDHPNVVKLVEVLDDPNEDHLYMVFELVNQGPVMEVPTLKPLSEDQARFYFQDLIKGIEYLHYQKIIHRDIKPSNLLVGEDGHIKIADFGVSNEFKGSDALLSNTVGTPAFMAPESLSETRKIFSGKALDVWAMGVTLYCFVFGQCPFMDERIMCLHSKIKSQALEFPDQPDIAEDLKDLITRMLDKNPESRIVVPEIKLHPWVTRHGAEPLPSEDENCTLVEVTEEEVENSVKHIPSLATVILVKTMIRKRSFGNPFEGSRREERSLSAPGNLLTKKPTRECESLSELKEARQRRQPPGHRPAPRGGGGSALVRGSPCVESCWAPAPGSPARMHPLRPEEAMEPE

[7] = Tmax in Sprague-Dawley rat at 3 mg/kg, po measured up to 24 hrs by LC-MS/MS analysis; assay type: ADME, organism-based; settings: in vivo
Mus musculus [8] = assay: Antiarthritic activity in DBA/1J mouse model of collagen-induced arthritis assessed as reduction in paw thickness at 20 mg/kg, po administered for 30 days and measured on day 30; assay type: functional, organism-based; settings: time 30.0 day
[9] = target: T1, Tyrosine-protein kinase BTK (Homo sapiens, UniProt Q06187); assay: Inhibition of BTK in human U2932 cells assessed as reduction in PLCgamma2 Y1217 phosphorylation at 0.03 to 10 uM incubated for 1 hr by Western blot analysis; assay type: cell-based; settings: dose 0.03-10 µM
T1 sequence (Q06187 whole entry): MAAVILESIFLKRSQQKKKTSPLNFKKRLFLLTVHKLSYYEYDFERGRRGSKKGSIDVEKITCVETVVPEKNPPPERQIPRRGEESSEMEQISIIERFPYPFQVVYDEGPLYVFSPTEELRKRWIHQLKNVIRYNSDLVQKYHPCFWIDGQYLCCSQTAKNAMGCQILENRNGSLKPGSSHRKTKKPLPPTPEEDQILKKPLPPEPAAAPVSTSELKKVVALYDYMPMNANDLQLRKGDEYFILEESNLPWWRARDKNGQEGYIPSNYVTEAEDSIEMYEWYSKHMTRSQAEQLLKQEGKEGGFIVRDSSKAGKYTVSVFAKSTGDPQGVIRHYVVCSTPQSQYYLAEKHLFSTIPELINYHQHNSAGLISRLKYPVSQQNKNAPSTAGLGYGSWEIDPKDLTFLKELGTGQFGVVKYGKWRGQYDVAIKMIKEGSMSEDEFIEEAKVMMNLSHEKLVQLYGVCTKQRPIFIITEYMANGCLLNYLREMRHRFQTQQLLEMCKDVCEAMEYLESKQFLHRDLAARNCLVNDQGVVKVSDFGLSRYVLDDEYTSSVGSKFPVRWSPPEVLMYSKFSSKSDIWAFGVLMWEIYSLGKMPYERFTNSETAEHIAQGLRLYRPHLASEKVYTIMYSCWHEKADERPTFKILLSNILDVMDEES

[10] = target: High affinity nerve growth factor receptor (Homo sapiens, UniProt P04629); assay: Inhibition of recombinant human TRKa using Ulight-Poly GAT[EAY(1:1:1)]n as substrate incubate for 10 mins by LANCE assay
[11] = target: Dual specificity mitogen-activated protein kinase kinase 1 (Homo sapiens, UniProt Q02750); assay: Inhibition of recombinant human MEK1 using inactivated ERK2 as substrate incubate for 60 mins by LANCE assay
Dual specificity mitogen-activated protein kinase kinase 1, sequence (Q02750 whole entry): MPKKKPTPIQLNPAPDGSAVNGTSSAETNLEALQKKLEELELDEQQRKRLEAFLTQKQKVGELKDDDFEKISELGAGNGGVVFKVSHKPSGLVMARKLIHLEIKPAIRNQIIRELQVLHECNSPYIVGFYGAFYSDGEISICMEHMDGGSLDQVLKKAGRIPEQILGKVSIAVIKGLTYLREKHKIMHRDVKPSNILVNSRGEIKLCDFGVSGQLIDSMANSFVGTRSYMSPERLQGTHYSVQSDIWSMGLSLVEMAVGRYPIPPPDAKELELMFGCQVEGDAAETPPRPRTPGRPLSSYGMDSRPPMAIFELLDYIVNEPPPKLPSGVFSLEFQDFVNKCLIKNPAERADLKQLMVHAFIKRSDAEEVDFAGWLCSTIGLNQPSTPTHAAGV

[12] = target: Tyrosine-protein kinase JAK1 (Homo sapiens, UniProt P23458); assay: Inhibition of JAK1 (unknown origin)
Tyrosine-protein kinase JAK1, sequence (P23458 whole entry): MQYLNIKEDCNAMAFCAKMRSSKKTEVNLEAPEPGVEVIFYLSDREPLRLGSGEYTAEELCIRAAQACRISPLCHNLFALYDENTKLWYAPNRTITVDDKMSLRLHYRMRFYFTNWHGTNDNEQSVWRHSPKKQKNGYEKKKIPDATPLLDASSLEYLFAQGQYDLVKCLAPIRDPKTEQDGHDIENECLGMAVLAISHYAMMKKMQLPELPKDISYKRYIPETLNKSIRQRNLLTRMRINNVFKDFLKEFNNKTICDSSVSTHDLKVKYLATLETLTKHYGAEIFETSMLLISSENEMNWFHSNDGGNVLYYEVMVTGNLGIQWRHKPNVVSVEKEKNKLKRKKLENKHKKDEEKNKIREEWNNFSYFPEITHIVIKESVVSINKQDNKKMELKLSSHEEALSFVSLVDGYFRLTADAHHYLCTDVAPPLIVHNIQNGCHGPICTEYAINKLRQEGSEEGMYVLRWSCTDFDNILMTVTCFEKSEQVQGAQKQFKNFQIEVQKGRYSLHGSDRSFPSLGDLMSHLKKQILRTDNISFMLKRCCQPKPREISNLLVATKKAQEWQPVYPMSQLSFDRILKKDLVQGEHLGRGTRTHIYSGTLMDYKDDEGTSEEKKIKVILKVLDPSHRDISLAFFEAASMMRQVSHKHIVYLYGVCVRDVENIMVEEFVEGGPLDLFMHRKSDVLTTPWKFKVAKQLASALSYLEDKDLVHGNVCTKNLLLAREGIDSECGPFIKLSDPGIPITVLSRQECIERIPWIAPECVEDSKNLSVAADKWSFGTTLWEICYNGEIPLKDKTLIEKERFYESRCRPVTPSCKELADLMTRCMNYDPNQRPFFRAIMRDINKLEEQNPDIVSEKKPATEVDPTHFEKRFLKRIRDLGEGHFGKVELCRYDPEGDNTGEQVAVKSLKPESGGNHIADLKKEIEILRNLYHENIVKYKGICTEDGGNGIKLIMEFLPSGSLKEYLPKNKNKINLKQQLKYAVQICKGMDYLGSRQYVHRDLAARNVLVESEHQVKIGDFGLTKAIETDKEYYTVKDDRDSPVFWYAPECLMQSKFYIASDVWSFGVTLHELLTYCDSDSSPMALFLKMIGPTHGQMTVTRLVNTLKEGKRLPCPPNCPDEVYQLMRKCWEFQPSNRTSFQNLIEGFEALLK

[13] = target: Proto-oncogene tyrosine-protein kinase Src (Homo sapiens, UniProt P12931); assay: Inhibition of recombinant human SRC using Ulight-Poly GAT[EAY(1:1:1)]n as substrate incubate for 10 mins by LANCE assay
[14] = Clearance in Sprague-Dawley rat at 3 mg/kg, po measured up to 24 hrs by LC-MS/MS analysis; assay type: ADME, organism-based; settings: in vivo
[15] = target: Tyrosine-protein kinase Yes (Homo sapiens, UniProt P07947); assay: Inhibition of recombinant human YES using biotinyl-beta Abeta-Abeta AYQAEENTYDEYEN as substrate incubate for 30 mins by LANCE assay
[16] = Metabolic stability in rat liver microsomes assessed as half life at 100 uM/L measured upto 90 mins by LC-MS/MS analysis; assay type: ADME, Microsome
Mus musculus [17] = assay: Antiarthritic activity in DBA/1J mouse model of collagen-induced arthritis assessed as reduction in edema formation at 20 mg/kg, po administered for 30 days and measured on day 30; assay type: functional, organism-based; settings: time 30.0 day
[18] = Toxicity in BALB/c mouse assessed as effect on sensitive to light at 2 g/kg, po measured after 7 days of administration; settings: in vivo, 168 h
[19] = target: Calcium/calmodulin-dependent protein kinase type II subunit beta (Homo sapiens, UniProt Q13554); assay: Inhibition of CAMK2 (unknown origin)
Calcium/calmodulin-dependent protein kinase type II subunit beta, sequence (Q13554 whole entry): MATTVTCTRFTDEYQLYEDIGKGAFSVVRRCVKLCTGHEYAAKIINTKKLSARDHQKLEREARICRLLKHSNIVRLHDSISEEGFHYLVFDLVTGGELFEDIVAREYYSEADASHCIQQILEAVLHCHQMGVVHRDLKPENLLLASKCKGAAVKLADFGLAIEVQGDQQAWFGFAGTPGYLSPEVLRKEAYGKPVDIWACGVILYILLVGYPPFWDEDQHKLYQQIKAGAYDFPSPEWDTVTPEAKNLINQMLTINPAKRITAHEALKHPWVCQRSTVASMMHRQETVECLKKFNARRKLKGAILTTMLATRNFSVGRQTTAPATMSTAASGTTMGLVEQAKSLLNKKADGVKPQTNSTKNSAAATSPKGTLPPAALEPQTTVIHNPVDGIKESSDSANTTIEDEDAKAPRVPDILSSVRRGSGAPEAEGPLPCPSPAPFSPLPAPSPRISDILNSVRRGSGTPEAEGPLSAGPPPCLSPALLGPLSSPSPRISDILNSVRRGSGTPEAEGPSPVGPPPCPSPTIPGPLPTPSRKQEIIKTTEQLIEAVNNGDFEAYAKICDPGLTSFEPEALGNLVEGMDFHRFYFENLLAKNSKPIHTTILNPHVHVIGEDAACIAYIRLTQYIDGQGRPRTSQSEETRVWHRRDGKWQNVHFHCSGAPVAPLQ

[20] = target: BDNF/NT-3 growth factors receptor (Homo sapiens, UniProt Q16620); assay: Inhibition of recombinant human TRKb using Ulight-Poly GAT[EAY(1:1:1)]n as substrate incubate for 10 mins by LANCE assay
[21] = target: Dual specificity mitogen-activated protein kinase kinase 4 (Homo sapiens, UniProt P45985); assay: Inhibition of MKK4 (unknown origin)
[22] = Cmax in Sprague-Dawley rat at 3 mg/kg, iv measured up to 24 hrs by LC-MS/MS analysis; assay type: ADME, organism-based; set-up: route intravenous, dose 3 mg/kg, time <=24; settings: in vivo
[23] = target: Macrophage colony-stimulating factor 1 receptor (Homo sapiens, UniProt P07333); assay: Inhibition of recombinant human FMS using Ulight-TK peptide as substrate incubate for 15 mins by LANCE assay
Macrophage colony-stimulating factor 1 receptor, sequence (P07333 whole entry): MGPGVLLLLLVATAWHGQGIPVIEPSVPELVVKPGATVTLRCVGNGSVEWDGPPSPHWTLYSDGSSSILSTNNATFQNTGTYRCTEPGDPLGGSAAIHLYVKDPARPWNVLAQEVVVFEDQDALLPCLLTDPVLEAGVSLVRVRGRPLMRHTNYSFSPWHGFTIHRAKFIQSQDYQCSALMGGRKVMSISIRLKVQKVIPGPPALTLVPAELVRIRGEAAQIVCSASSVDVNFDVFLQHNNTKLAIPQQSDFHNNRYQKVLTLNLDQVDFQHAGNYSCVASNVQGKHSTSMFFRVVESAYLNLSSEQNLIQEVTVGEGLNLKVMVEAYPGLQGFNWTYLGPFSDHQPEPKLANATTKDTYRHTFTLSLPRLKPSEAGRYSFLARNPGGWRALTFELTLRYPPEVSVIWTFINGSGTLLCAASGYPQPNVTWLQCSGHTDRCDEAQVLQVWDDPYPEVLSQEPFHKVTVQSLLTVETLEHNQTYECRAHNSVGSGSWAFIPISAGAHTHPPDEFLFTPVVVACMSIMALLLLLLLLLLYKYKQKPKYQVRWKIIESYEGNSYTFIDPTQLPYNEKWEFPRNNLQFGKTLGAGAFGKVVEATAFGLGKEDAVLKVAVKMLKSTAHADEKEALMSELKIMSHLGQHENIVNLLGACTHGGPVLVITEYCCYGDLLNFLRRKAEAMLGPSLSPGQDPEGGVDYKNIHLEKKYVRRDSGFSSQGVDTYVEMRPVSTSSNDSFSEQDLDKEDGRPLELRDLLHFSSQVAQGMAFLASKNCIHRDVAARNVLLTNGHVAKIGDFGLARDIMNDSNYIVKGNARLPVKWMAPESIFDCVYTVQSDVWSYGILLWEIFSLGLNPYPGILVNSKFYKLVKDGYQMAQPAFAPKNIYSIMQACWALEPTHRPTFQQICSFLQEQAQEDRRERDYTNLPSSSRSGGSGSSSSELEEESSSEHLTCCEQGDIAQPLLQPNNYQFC

[24] = Toxicity in BALB/c mouse assessed as mouse survival at 2 g/kg, po measured after 7 days of administration; settings: in vivo, 168 h
[25] = target: Calcium/calmodulin-dependent protein kinase kinase 1 (Homo sapiens, UniProt Q8N5S9); assay: Inhibition of CAMKK1 (unknown origin)
[26] = target: Tyrosine-protein kinase Fyn (Homo sapiens, UniProt P06241); assay: Inhibition of recombinant human FYN using biotinyl-beta Abeta-Abeta AYQAEENTYDEYEN as substrate incubate for 60 mins by LANCE assay
Tyrosine-protein kinase Fyn, sequence (P06241 whole entry): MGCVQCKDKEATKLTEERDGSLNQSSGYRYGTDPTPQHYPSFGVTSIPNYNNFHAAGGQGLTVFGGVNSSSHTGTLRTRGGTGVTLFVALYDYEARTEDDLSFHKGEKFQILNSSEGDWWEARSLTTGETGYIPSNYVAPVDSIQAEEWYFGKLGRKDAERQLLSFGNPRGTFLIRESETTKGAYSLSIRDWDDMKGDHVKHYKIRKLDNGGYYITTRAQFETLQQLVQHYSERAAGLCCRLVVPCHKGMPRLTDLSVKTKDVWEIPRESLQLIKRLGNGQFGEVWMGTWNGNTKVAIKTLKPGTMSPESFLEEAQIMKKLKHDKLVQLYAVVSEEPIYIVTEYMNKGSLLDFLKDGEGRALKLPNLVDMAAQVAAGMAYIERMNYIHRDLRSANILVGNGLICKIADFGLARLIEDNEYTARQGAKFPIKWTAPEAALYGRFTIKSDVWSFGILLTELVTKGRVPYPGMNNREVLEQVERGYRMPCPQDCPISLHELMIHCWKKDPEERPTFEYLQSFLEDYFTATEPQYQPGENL

[27] = Half life in Sprague-Dawley rat at 3 mg/kg, iv measured up to 24 hrs by LC-MS/MS analysis; assay type: ADME, organism-based; settings: in vivo
[28] = target: Serine/threonine-protein kinase mTOR (Homo sapiens, UniProt P42345); assay: Inhibition of mTOR (unknown origin)
[29] = Toxicity in DBA/1J mouse assessed as effect on body weight at 20 mg/kg, po administered for 30 days and measured on day 30; assay type: organism-based; settings: in vivo, 720 h, time 30 day
[30] = Metabolic stability in monkey liver microsomes assessed as half life at 100 uM/L measured upto 90 mins by LC-MS/MS analysis; assay type: ADME, Macaca mulatta, Microsome; settings: rhesus monkey
[31] = target: Tyrosine-protein kinase FRK (Homo sapiens, UniProt P42685); assay: Inhibition of FRK (unknown origin)
[32] = target: T1, Tyrosine-protein kinase BTK
Description: Reversible inhibition of BTK (unknown origin) assessed as association rate constant by caliper mobility shift assay

[33] = target: Dual specificity mitogen-activated protein kinase kinase 6 (Homo sapiens, UniProt P52564); assay: Inhibition of MKK6 (unknown origin)
[34] = target: T1, Tyrosine-protein kinase BTK; assay: Inhibition of BTK (unknown origin) by caliper mobility shift assay
[35] = target: Calcium/calmodulin-dependent protein kinase type 1 (Homo sapiens, UniProt Q14012); assay: Inhibition of CAMK1 (unknown origin)
[36] = target: Tyrosine-protein kinase Fgr (Homo sapiens, UniProt P09769); assay: Inhibition of FGR (unknown origin)
[37] = Toxicity in BALB/c mouse assessed as normal behavior at 2 g/kg, po measured after 7 days of administration; settings: in vivo, 168 h
[38] = target: Tyrosine-protein kinase Blk (Homo sapiens, UniProt P51451); assay: Inhibition of BLK (unknown origin)
[39] = Inhibition of PKC (unknown origin); set-up: species or system Homo sapiens
[40] = Metabolic stability in human liver microsomes assessed as intrinsic clearance at 100 uM/L measured upto 90 mins by LC-MS/MS analysis; assay type: ADME, Microsome; settings: 1.5 h
[41] = Metabolic stability in monkey liver microsomes assessed as intrinsic clearance at 100 uM/L measured upto 90 mins by LC-MS/MS analysis; assay type: ADME, Macaca mulatta, Microsome; settings: rhesus monkey, 1.5 h

SMILES: C=CC(=O)N1CCC(Cn2cc(-c3ccc4c(c3)OCO4)c3c(N)ncnc32)CC1
- IC50 [1]: > 10 µM
- AUCt [2]: 2522.28 ng·h/mL
- half-life at 100 µM [3]: 5.5 h
- bioavailability [4]: 49.1%
- IC50 [5]: > 10 µM
- IC50 [6]: > 10 µM
- Tmax [7]: 0.96 h
- Activity (Mus musculus [8]): Active
- inhibition [9]: Active
- IC50 [10]: > 10 µM
- IC50 [11]: > 10 µM
- IC50 [12]: > 10 µM
- IC50 [13]: 1 µM
- CL/F [14]: 45.8 mL/min/kg
- IC50 [15]: 0.146 µM
- half-life at 100 µM [16]: 3.12 h
- Activity (Mus musculus [17]): Active
- Activity [18]: Non-Toxic
- IC50 [19]: > 10 µM
- IC50 [20]: > 10 µM
- IC50 [21]: > 10 µM
- Cmax [22]: 3130 ng/mL
- IC50 [23]: > 10 µM
- Activity [24]: Non-Toxic
- IC50 [25]: > 10 µM
- IC50 [26]: 1.01 µM
- t1/2 [27]: 5.18 h
- IC50 [28]: > 10 µM
- Activity [29]: Non-Toxic
- half-life at 100 µM [30]: 2.82 h
- IC50 [31]: 1.13 µM
- Ka [32]: 9630 M⁻¹ s⁻¹
- IC50 [33]: > 10 µM
- IC50 [34]: 0.0217 µM
- IC50 [35]: > 10 µM
- IC50 [36]: 0.657 µM
- Activity [37]: Non-Toxic
- IC50 [38]: 0.504 µM
- IC50 [39]: > 10 µM
- CLH [40]: 4.2 µL/min/mg
- CLH [41]: 8.2 µL/min/mg

From ChEMBL document CHEMBL4715815, “Design, synthesis and biological evaluation of 7H-pyrrolo[2,3-d]pyrimidin-4-amine derivatives as selective Btk inhibitors with improved pharmacokinetic properties for the treatment of rheumatoid arthritis” (Eur J Med Chem, 2018)
